Experimental data as given in PubChem BioAssay AID366 (MTDP, 2006).
Active and inactive are the calls of the source. How the calls were made is not given here.

Molecular target: Ribonuclease H1 (Homo sapiens) (UniProt O60930)
Assay: inhibition of human ribonuclease H1 activity – biochemical, FRET RNA/DNA duplex cleavage, dose response (AID 366);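 further: potency is for inhibitors that lower RNA cleavage and so lower fluorescence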
Conditions: human RNase H1, FRET RNA/DNA duplex cleavage, fluorescence

Ribonuclease H1 (Homo sapiens), sequence (O60930 whole entry, looked up): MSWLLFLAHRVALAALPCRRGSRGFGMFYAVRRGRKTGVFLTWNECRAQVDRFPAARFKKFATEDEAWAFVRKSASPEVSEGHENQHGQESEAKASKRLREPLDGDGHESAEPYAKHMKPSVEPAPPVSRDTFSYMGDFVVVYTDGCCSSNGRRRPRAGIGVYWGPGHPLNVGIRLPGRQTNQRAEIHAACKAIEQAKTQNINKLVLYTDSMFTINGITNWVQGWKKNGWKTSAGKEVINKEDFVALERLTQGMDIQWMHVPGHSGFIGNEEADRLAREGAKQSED

Row | Compound | IC50
1 | O=c1[nH]c2[nH]c(=S)[nH]c(=S)c2[nH]1 | 9000 nM
2 | Cc1cc(C(=O)O)ccc1-n1c(C)ccc1C | inactive
3 | O=C1C(Cl)=C(NC(=O)c2ccccc2)C(=O)C(Cl)=C1NC(=O)c1ccccc1 | inactive
4 | COc1cc([C@@H]2c3cc4c(cc3C[C@H]3COC(=O)[C@@H]32)OCO4)cc(OC)c1O | 1800 nM
5 | O=C1c2ccccc2C(=O)c2c1cc(O)c(O)c2O | 600 nM
6 | COc1cc(C)cc2c(-c3c(O)cc(O)c4c3C[C@@H](C)N[C@@H]4C)cc(-c3cc(-c4c(O)cc(O)c5c4C[C@@H](C)N[C@@H]5C)c4cc(C)cc(OC)c4c3O)c(O)c12 | 2000 nM
7 | N#Cc1c(N)nc(SCC(=O)c2ccc(O)c(O)c2)c(C#N)c1-c1ccc(O)cc1 | 1300 nM
8 | Nc1cc(S(N)(=O)=O)ccc1SSc1ccc(S(N)(=O)=O)cc1N | inactive
9 | Cc1ccc(N2C(=O)/C(=C/c3ccc(O)c(O)c3)SC2=S)cc1C | 4000 nM
10 | O=c1oc2ccccc2c(O)c1/C=C1\C=Nc2ccccc21 | 9700 nM
11 | CCOc1ccc(C(=O)Nc2ccc3c(c2)C(=O)c2ccccc2C3=O)cc1 | 1100 nM
12 | CCOc1ccc(NC(=O)c2c(NC(=O)c3ccccc3)sc3c2CCCCC3)cc1 | 1100 nM
13 | Cc1ccc(-c2c(C#N)c(SCC(=O)c3ccc(O)c(O)c3)nc3c2CCCC3)o1 | 1500 nM
14 | COc1ccc(C(=O)NC(=S)Nc2ccc3nn(-c4ccc(C)c(Cl)c4)nc3c2)cc1[N+](=O)[O-] | 560 nM
15 | Cc1ccc(C2COc3cc(O)c(O)cc3C2)cc1 (configuration not stated) | 4800 nM
16 | COc1ccc(C2COc3cc(O)c(O)cc3C2)cc1 (configuration not stated) | 2800 nM
17 | O=C1NC(=S)N(c2ccc(Cl)cc2)C(=O)/C1=C/c1ccc(Br)o1 | 600 nM
18 | O=C1C=CC(=NS(=O)(=O)c2ccc(Cl)c([N+](=O)[O-])c2)C=C1 | 2100 nM
19 | C[C@@H]1[C@H](O)c2c(c3c(c4c(-c5ccccc5)cc(=O)oc24)OC(C)(C)C=C3)O[C@@H]1C | 4800 nM
20 | O=C1/C(=C/c2ccc(O)c(O)c2)SC(=S)N1c1ccc(O)cc1 | 3500 nM
21 | O=C1NC(=S)N(c2cccc(Cl)c2)C(=O)/C1=C\C=C\c1ccco1 | 6000 nM
22 | O=C1O/C(=C(/C(=O)O)c2ccc(O)cc2)C(O)=C1c1cc2c3c(c(O)cc(C4=C(O)/C(=C(\C(=O)O)c5ccc(O)cc5)OC4=O)c3c1)OC2=O | 600 nM
23 | Nc1ccc(S(=O)(=O)O)c2cccc(O)c12 | 4500 nM
24 | CC(C)c1cccc(O)c(=O)c1 | > 100000 nM (inactive)
25 | O=C1NC(=S)N(c2ccccc2F)C(=O)C1=Cc1ccco1 | 200 nM
26 | CCOc1ccc(C2=CC(=O)C=CC2=O)cc1 | 5700 nM

Row | Compound | IC50
27 | O=C1NC(=S)S/C1=C/c1cccc(OCc2ccc(Cl)c(Cl)c2)c1 | 7300 nM
28 | Cc1ccc(C)n1-c1ccc(SCC(=O)O)cc1 | 1200 nM
29 | Cc1onc(-c2ccccc2)c1C(=O)Nc1sc(C)c(C)c1C(N)=O | 8000 nM
30 | Cc1sc(NC(=O)c2ccco2)c(C(N)=O)c1C | inactive
31 | COc1ccccc1NC(=O)c1c(NC(=O)Cc2ccccc2)sc2c1CCCCC2 | 480 nM
32 | O=C1C(Cl)=CC(=NS(=O)(=O)c2ccccc2)C=C1Cl | 4300 nM
33 | O=C1NC(=S)N(c2ccc(Cl)cc2)C(=O)/C1=C/c1ccco1 | inactive
34 | CCCc1cc(=O)oc2c3c(c4c(c12)OC(C)(C)C=C4)O[C@H](C)[C@@H](C)[C@H]3OC | 4900 nM
35 | CC(=O)/C=C/C=C/c1ccc2c(c1)OC(CO)C(c1ccc(O)c(O)c1)O2 (configuration not stated) | 6000 nM
36 | CC1=NN(c2ccc(S(N)(=O)=O)cc2)C(=O)/C1=C/c1ccc(-c2ccc(Cl)cc2Cl)o1 | 750 nM
37 | Cc1ccc(NC(=O)c2c(NC(=O)C(F)(F)F)sc(-c3ccccc3)c2C)c(C)c1 | 7500 nM
38 | O=C1NC(=S)N(c2ccccc2F)C(=O)/C1=C/c1ccc(I)o1 | 3000 nM
39 | CC1=C(CCC(=O)O)c2cc3nc(cc4[nH]c(cc5[nH]c(cc1n2)c(C)c5C(C)O)c(C)c4C(C)O)C(C)=C3CCC(=O)O (configuration not stated) | 400 nM
40 | CC(C)=CCC[C@]1(C)[C@@H](CC=C(C)C)C[C@@]2(CC=C(C)C)C(=O)/C(=C(\O)c3ccc(O)c(O)c3)C(=O)[C@]1(CC=C(C)C)C2=O | 3200 nM
41 | Cc1ccccc1-n1c(O)c(C=C2C=CC=N2)c(=O)[nH]c1=S | 5000 nM
42 | NC(=O)c1c(NC(=O)COc2ccccc2)sc2c1CCCCC2 | 3800 nM
43 | O=C1/C(=C\c2ccc(O)c(O)c2)SC(=S)N1c1cccc(Cl)c1 | 1600 nM
44 | COc1ccc2c(c1)N(C(=O)CN1C(=O)c3ccccc3C1=O)C(C)(C)c1ssc(=S)c1-2 | inactive
45 | c1ccc(C(c2cccc3c2ccc2ccccc23)C(c2ccccc2)c2cccc3c2ccc2ccccc23)cc1 (configuration not stated) | 3600 nM
46 | O=C(O)c1c(Br)c(Br)c(Br)c(Br)c1C1c2ccc(O)cc2Oc2cc(O)ccc21 | 900 nM
47 | Oc1c(Br)cc(/C=N/Nc2nnc3c(n2)[nH]c2ccccc23)c(Br)c1O | 300 nM
48 | C=C(CCC(C(=O)O)C1CCC2(C)C3=C(CCC12C)C1(C)CCC(O)C(C)(C)C1CC3)C(C)C (configuration not stated) | 4800 nM
49 | Nc1ccc(N=Nc2ccc(-c3ccc(O)cc3)cc2)c2ccc(S(=O)(=O)O)cc12 | 4800 nM
50 | O=C1C(Cl)=C/C(=N\S(=O)(=O)c2ccc(Cl)cc2)C(Cl)=C1Cl | 4600 nM
51 | Cc1cc(Cl)ccc1OCC(=O)Nc1sc(C)c(C)c1C(N)=O | 4300 nM
52 | COc1ccc(NC(=O)c2c(N)sc(-c3ccccc3)c2C)cc1 | 2000 nM

Row | Compound | IC50
53 | O=C1/C(=C/c2ccco2)C(=O)N(c2ccc(Br)cc2)C(=S)N1c1ccccc1 | 4400 nM
54 | NC(=O)c1c(NC(=O)CCc2ccccc2)sc2c1CCCCCC2 | 1800 nM
55 | Cc1sc(NC(=O)c2ccc3c(c2)OCO3)c(C(N)=O)c1C | 3300 nM
56 | COc1ccc(N2C(=O)/C(=C/c3ccc(I)o3)C(=O)NC2=S)cc1 | 1200 nM
57 | CC(C)c1ccc(O)c(=O)cc1 | inactive
58 | C[C@]12Cc3cnc(-c4ccccc4)nc3C[C@@H]1CC[C@@H]1[C@@H]2CC[C@@]2(C)[C@H]1CC[C@]2(C)O | 2800 nM
59 | COc1cccc2cc(C(N)=O)c(=O)oc12 | inactive
60 | Cc1sc(NC(=O)C2CCCO2)c(C(N)=O)c1C (configuration not stated) | inactive
61 | O=c1[nH]c(=S)n(-c2ccccc2F)c(O)c1C=C1C=CC=N1 | 400 nM
62 | C=C(C)[C@@H]1CCc2c(O)c(O)c(=O)cc(C)c2C1 | 3800 nM
63 | O=C1c2ccccc2C(=O)N1c1ccc(-c2nc3ccc(N4C(=O)c5ccccc5C4=O)cc3[nH]2)cc1 | 540 nM
64 | O=C(N/N=C/c1ccc(/C=N/NC(=O)c2ccc(O)c(O)c2)cc1)c1ccc(O)c(O)c1 | 40 nM
65 | O=C1c2ccccc2C(=O)c2c(NC3CCCCC3)ccc(Nc3ccc(S(=O)(=O)O)cc3)c21 | 2200 nM
66 | C=CC(C)(C)C12CC3C(=O)N/C(=C\c4cnc[nH]4)C(=O)N3C1Nc1ccccc12 (configuration not stated) | inactive
67 | COC(=O)c1cc2c3c(ccc2[nH]1)N(C(=O)c1cc2c4c(ccc2[nH]1)N(C(=O)c1cc2c5c(ccc2[nH]1)N(C(N)=O)CC5)CC4)CC3 | 800 nM
68 | COc1c(OC)c(O)c2c(=O)cc(-c3ccc(O)c(O)c3)oc2c1OC | inactive
69 | Cc1cc(-c2ccco2)c(C#N)c(SCC(=O)c2ccc(O)c(O)c2)n1 | 1800 nM
70 | O=C(O)C1Nc2c(Cl)cc(Cl)cc2C2C=CCC12 (configuration not stated) | 8800 nM
71 | O=C1C(Cl)=C/C(=N\S(=O)(=O)c2ccccc2)C(Cl)=C1Cl | 4100 nM
72 | O=C(O)/C=C/c1c2ccc(=O)c(O)c-2oc2c(O)c(O)ccc12 | 50 nM
73 | Nc1c(S(=O)(=O)O)cc(Nc2cccc(S(N)(=O)=O)c2)c2c1C(=O)c1ccccc1C2=O | 2600 nM
74 | Cc1ccc(S(=O)(=O)/N=C2\C=C(Sc3ncn[nH]3)C(=O)c3ccccc32)cc1 | 9200 nM
75 | O=[N+]([O-])c1ccc(S(=O)(=O)Cc2ccccc2)c2nonc12 | 5000 nM
76 | Cc1sc(NC(=O)c2cccc([N+](=O)[O-])c2)c(C(N)=O)c1C | 700 nM
77 | C[C@]12CC[C@H]3[C@@H](CCC4=CC(=O)CC[C@@]43C)[C@@H]1CC[C@@H]2C(=O)COS(=O)(=O)c1ccc(Br)cc1 | 1100 nM
78 | CC1Oc2cc3c(-c4c(O)cc(O)c5c(O)c6c(cc45)OC(C)C(C)C6=O)c(O)cc(O)c3c(O)c2C(=O)C1C (configuration not stated) | 2700 nM

Row | Compound | IC50
79 | C[N+](C)=c1ccc2nc3c(cc(Nc4ccccc4)c4ccccc43)oc-2c1 | 1600 nM
80 | N#C/C(=C\Nc1ccc(S(=O)(=O)Nc2nccs2)cc1)c1nc(-c2ccc(Cl)cc2)cs1 | 500 nM
81 | N#Cc1c(NC(=O)C(F)(F)F)sc2c3c(=O)c4ccccc4c(=O)c=3oc3ccccc3c12 | inactive
82 | Cc1ccc(-c2n[nH]c(=S)n2/N=C/c2ccc(O)c(O)c2O)cc1 | inactive
83 | CCCCCCCCCCCCCCCCCCOCC(O)CO (configuration not stated) | > 100000 nM (inactive)
84 | O=C(CSc1nc2ccccc2s1)c1sc2sc3ccccc3[n+]2c1[O-] | 300 nM
85 | CC1C2C=CC1C(c1c3ccc(=O)c(O)c-3oc3c(O)c(O)ccc13)C2C(=O)O (configuration not stated) | 70 nM
86 | O=C1Nc2ccc(I)cc2C1(O)N1CCOCC1 (configuration not stated) | 400 nM
87 | Cc1cc(Br)ccc1N1C(=O)/C(=C/c2ccco2)C(=O)NC1=S | 800 nM
88 | O=C1/C(=C/c2ccc(O)c(O)c2)SC(=S)N1C1CCCCC1 | 1800 nM
89 | COc1ccccc1N=C(NOCc1ccc(Cl)cc1Cl)c1nonc1N | 8800 nM
90 | CCN1C(=O)/C(=C/c2ccoc2)C(=O)NC1=S | > 100000 nM (inactive)
91 | O=[N+]([O-])c1c(Cl)cccc1-c1c[nH]cc1Cl | > 100000 nM (inactive)
92 | COc1cc(C=O)ccc1OCCCOc1cccc(Oc2ccccc2)c1 | 6000 nM
93 | COc1ccc(N2C(=O)/C(=C\c3cn(CC(=O)Nc4ccccc4)c4ccccc34)C(=O)NC2=S)cc1 | 620 nM
94 | Cc1ccc(-c2cc(C(=O)Nc3sc(C(=O)OC(C)C)c(C)c3C(N)=O)c3ccccc3n2)s1 | 800 nM
95 | CCc1c(O)c2c(c(O)c1C(C)=O)C(=O)c1c(cc(O)c(C(=O)O)c1C(=O)O)C2=O | 3600 nM
96 | O=C(O)CCc1c2ccc(=O)c(O)c-2oc2c(O)c(O)ccc12 | 70 nM
97 | Cc1c(Cl)ccc2c1NC(C(=O)O)C1CC=CC21 (configuration not stated) | 2000 nM
98 | COc1cccc(-c2nc3cc(NC(=O)/C=C\c4ccccc4)ccc3o2)c1 | 800 nM
99 | COc1cc(/C=N\c2sc3c(c2C(=O)NCc2ccccc2)CCCC3)cc(Cl)c1O | 2000 nM
100 | CC(C)=CCc1ccc(O)c(=O)cc1C(C)C | inactive
101 | O=S(=O)(Nc1cccc(C(F)(F)F)c1)c1ccc2ccccc2c1 | inactive
102 | CCC(=O)Nc1sc2c(c1C(=O)Nc1ccc(OC)cc1)CCCCC2 | 9000 nM
